Data as given in patent US12006278B1, “4,4′-naphthalene-1,5-diylbis(diazene-2,1-diyl)diphenol as an antioxidant compound” (KING FAISAL UNIVERSITY, priority 2023, dated 2024).

Test: DPPH radical scavenging antioxidant test
Conditions: 517 nm; for Inhibition (radical scavenging inhibition): compound 3 μM in ethanol + 0.2 mL DPPH (0.75 mM), 30 min incubation in the dark
Experimental: The antioxidant properties of the 4,4′-naphthalene-1,5-diylbis(diazene-2,1-diyl)diphenol were studied by adding 0.2 mL DPPH (0.75 mM)) to compound 4,4′-naphthalene-1,5-diylbis(diazene-2,1-diyl)diphenol (III) (3 μM) in ethanol. After 30 min of incubation in the dark, the absorbance was read against a blank at 517 nm. Ascorbic acid (vitamin C) was used as standard antioxidants (positive control). A blank sample was prepared by 0.2 ml of DPPH in 3 ml ethanol. A negative control sample was run using ethanol instead of the sample. The radical scavenging inhibition was calculated using the following equation: […]

SMILES | antioxidant potential compared to vitamin C (result in words) (DPPH in vitro test, vitamin C as positive control) | Inhibition (radical scavenging inhibition)
Oc1ccc(/N=N\c2cccc3c(/N=N/c4ccc(O)cc4)cccc23)cc1 [Product III, 4,4′-naphthalene-1,5-diylbis(diazene-2,1-diyl)diphenol] | high potential as an antioxidant | 54%
O=C1O[C@H]([C@@H](O)CO)C(O)=C1O [vit c, Ascorbic acid, reference compound] | – | 74%
